Consider 17 compounds from patent US20260327193A1, “INHIBITORS OF PLASMA KALLIKREIN” (Rezolute, Inc., priority 2022, published 2026).

Data set [1] in a line: Caco-2 permeability assay. The class given is in vitro ADME. The following applies: human, 10 μM test compound, pH 7.4, 37° C., 120 minutes, direction of the value not given, read-out: Caco-2 Perm. The method, then:
Permeability Assay. A permeability study was conducted using Caco-2 cells (ECACC Cat. no. 09042001) seeded on cell inserts plate (Millicell, Cat #PSHT010R^5) at a density of 80,000 cells per well, and the cells were maintained for 18-21 days in culture medium (1×DMEM with 10% FBS, 0.1 mg/mL Penicillin/Streptomycin). The culture medium was changed every alternate day. Prior to the experiments, the integrity of the cellular monolayer was evaluated by measuring the TEER value using a volt ohm meter and STX100C96 electrode. Only monolayers with TEER values greater than 800 ohm·cm^2 in buffer after the first wash were used.
An assay buffer (HBSS with Ca+2 and Mg+2 buffered with 10 mM HEPES and 25 mM D-Glucose, pH-7.4) was used on apical side as well as on basolateral side.
An intermediate stock solution of a test compound was prepared in DMSO at a concentration of 1 mM in DMSO. This stock solution was spiked in the assay buffer to achieve a target test compound concentration of 10 μM. The organic content of final drug preparation was 1.0% v/v. The bidirectional permeability experiment was done in singlet and the sample analysis was done in duplicate.
The cultured cell monolayer was washed twice with assay buffer (0.4 mL and 0.8 mL was added to the apical and basolateral sides, respectively, of the culture plate), and then buffers from both compartments were discarded.
For the apical to basal (AP>BL) experiment, aliquots of 0.4 mL donor solution (assay buffer, pH 7.4 containing test compound) and 0.8 mL of receiver solutions (assay buffer, pH 7.4, only) were added to the apical and basolateral compartments, respectively. For the basal to apical (BL>AP) experiment, aliquots of 0.8 mL donor solution (assay buffer pH-7.4 containing test compound) and 0.4 mL of receiver solutions (assay buffer, pH-7.4) were added to the basolateral and apical compartments, respectively. The plate was then kept in an incubator at 37° C. for 120 minutes.
Control experiments with Propranolol (High Permeability), Atenolol (Low Permeability), Digoxin (High Efflux-Pgp substrate), and Digoxin+Verapamil (Pgp Inhibitor) in both directions (AP>BL and BL>AP) were performed in separate wells on the same experiment day.
After the completion of the transport experiment, the integrity of the cell monolayer was evaluated by measuring the Lucifer Yellow (LY) rejection. To do this, 400 μL of 10 μM LY was added to each well of the filter plate and incubated for 1 hour at 37° C. Subsequently, the samples were collected from the basolateral compartments, and the LY fluorescence was measured using an excitation wavelength of 485 nm and an emission wavelength of 530 nm. The percent LY rejection across the cell monolayer was calculated by measuring fluorescence in the receiver plate (basolateral compartment) compared to theoretical equilibrium standard.
The study samples (collected from apical and basolateral compartments after 120 min incubation) were analyzed by LCMS/MS, following which the Papp of the compound(s) was calculated in both apical to basal and basal to apical directions. Papp=([DBL]×VBL)/(A×t×[DAP]) where: [DBL]=final drug concentration on the basolateral side, VBL=volume of the basolateral compartment, A=surface area of the cell culture, t=total incubation time, and [DAP]=initial drug concentration on the apical side.
In general terms: Passage across Caco-2 layers is used to estimate intestinal permeability.

Data set [2] deals with T1, Plasma Kallikrein (Homo sapiens, UniProt P03952). The experiment in a line: Plasma kallikrein protease inhibition assay, purified enzyme. The class given is biochemical. Also on record: NS0-derived Gly20-Ala638, with a C-terminal 60-His tag; 60-His (so in the source) (C); purchased R&D Systems 2497-SE; host or cells: Mouse myeloma cell line, NS0. The following applies: 10 μM Z-FR-AMC substrate, 20-minute pre-incubation, pH 8.0/8.5, room temperature, read-out: Purified PKal IC50. The method, then:
(§1) Plasma kallikrein protease inhibition assay. Two methods for determining the IC50 of a test compound against Plasma Kallikrein are provided.
In the first method was used a reaction buffer composed of 25 mM Tris-HCl (pH 8.0), 100 mM NaCl (pH 8.5), 0.01% Brij35, and 1% DMSO (final). The enzyme used was Plasma Kallikrein (R&D Systems Cat #2497-SE; Recombinant Human Plasma Kallikrein, expressed in Mouse myeloma cell line, NS0-derived Gly20-Ala638, with a C-terminal 60-His tag. MW=70 kDa).
The enzyme was activated by dilution to 200 μg/mL in activation buffer (100 mM Tris, 10 mM CaCl2, 150 mM NaCl, pH 7.5 (TCN), and then combined with an equal volume of 20 μg/mL thermolysin to form a reaction buffer. Each test compound was then dissolved in DMSO and delivered into the reaction buffer. The reaction was initiated by delivering a substrate solution containing 10 μM Z-FR-AMC (Enzo Cat #P-139; AMC: 7-Amino-4-methylcoumarin) into the reaction well after a 20-minute pre-incubation period.
Measurement was conducted with En Vision (PE) with excitation and emission wavelengths of 355 nm and 460 nm, respectively. […]. The enzyme activities were monitored every 5 minutes as a time-course measurement of the increase in signal from fluorescently labeled peptide substrate for 120 minutes at room temperature.
Data was analyzed by taking slope*(signal/time) of the linear portion of measurements. Slope was calculated using Excel, and curve fits were performed using Prism software.

Data set [3] concerns the target T1, Plasma Kallikrein. Kind of data set: Plasma kallikrein activity in pooled human plasma. It counts as biochemical. Also on record: Plasma Kallikrein activity was also measured in pooled human plasma; from tissue; host or cells: pooled human plasma. The following applies: Z-FR-AMC substrate, activated with 10% Actin FS solution, 10 minutes, read-out: Pooled Human Plasma PKal IC50. The method, then: as §1
Second, Plasma Kallikrein activity was also measured in pooled human plasma. First, a 10% Actin FS solution was prepared in assay buffer. Each test compound was dissolved in DMSO and delivered to the reaction mixture along with Z-FR-AMC substrate and pooled human plasma. The multi-well reaction plate was incubated for five minutes at room temperature. To initiate the reaction, the 10% Actin FS solution was added to each well, and kinetic measurements were taken at Ex/Em at 355/460 nm. The fluorescence signal was recorded every 30 seconds for a total of 10 minutes.

T1 sequence (P03952 391-638 limits assumed): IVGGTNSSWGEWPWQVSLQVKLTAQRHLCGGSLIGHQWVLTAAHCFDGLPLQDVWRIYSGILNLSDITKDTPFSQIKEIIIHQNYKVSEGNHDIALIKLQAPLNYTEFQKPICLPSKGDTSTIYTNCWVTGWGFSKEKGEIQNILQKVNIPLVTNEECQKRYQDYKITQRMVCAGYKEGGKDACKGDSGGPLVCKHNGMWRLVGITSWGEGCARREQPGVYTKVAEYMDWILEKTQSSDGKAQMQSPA
T1 sequence (P03952 20-390 partner limits assumed): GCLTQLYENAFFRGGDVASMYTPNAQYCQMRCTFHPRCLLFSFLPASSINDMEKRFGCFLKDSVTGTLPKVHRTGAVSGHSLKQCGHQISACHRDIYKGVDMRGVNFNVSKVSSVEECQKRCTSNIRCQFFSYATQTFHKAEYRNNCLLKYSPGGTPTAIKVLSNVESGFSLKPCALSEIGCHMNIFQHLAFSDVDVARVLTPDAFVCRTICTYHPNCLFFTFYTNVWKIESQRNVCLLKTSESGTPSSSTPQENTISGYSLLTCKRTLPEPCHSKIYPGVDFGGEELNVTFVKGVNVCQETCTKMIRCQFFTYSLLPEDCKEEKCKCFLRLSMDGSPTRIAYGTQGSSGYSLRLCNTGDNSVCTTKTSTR

In general, IC50 refers to the concentration at which inhibition is half-maximal. For the compound `COCCc1ccc(Cn2ncc(C(=O)NCc3ccc(C(=N)N)cc3)c2COC)cc1` [Example 87, N-(4-carbamimidoylbenzyl)-1-(4-(2-methoxyethyl)benzyl)-5-(methoxymethyl)-1H-pyrazole-4-carboxamide], the Papp at 2 h, 10 µM in data set [1] is less than 2 ×10⁻⁶ cm/s. In addition, the IC50 is 10 to 100 nM at Plasma Kallikrein [2] and less than 100 nM at Plasma Kallikrein [3].
Consider `N#Cc1cccc(Cc2ccc(Cn3cc(C(=O)NCc4ccc(C(=N)N)c(F)c4)cn3)cc2)c1` [Example 49, N-(4-carbamimidoyl-3-fluorobenzyl)-1-(4-(3-cyanobenzyl)benzyl)-1H-pyrazole-4-carboxamide], for which, in data set [1], the Papp at 2 h, 10 µM was less than 2 ×10⁻⁶ cm/s. Also, the results for the IC50 on Plasma Kallikrein [2] and on Plasma Kallikrein [3] were less than 1 nM and 100 to 1000 nM, respectively.
Consider `CNC(=O)Cc1ccc(Cn2cc(C(=O)NCc3ccc(C(=N)N)cc3)cn2)cc1` [Example 19, N-(4-carbamimidoylbenzyl)-1-(4-(2-(methylamino)-2-oxoethyl)benzyl)-1H-pyrazole-4-carboxamide], for which, in data set [1], the Papp at 2 h, 10 µM is less than 2 ×10⁻⁶ cm/s. Besides, the results for the IC50 on Plasma Kallikrein [2] and at Plasma Kallikrein [3] were less than 1 nM and less than 100 nM, respectively.
For `CC(C)(C#N)c1ccc(Cn2cc(C(=O)NCc3ccc(C(=N)N)c(F)c3)cn2)cc1` [Example 43, N-(4-carbamimidoyl-3-fluorobenzyl)-1-(4-(2-cyanopropan-2-yl)benzyl)-1H-pyrazole-4-carboxamide] the same measures were less than 2 ×10⁻⁶ cm/s, 1 to 10 nM and less than 100 nM.
For `N#CCCc1ccc(Cn2cc(C(=O)NCc3ccc(C(=N)N)cc3)cn2)cc1` [Example 3, N-(4-carbamimidoylbenzyl)-1-(4-(2-cyanoethyl)benzyl)-1H-pyrazole-4-carboxamide], in that order: less than 2 ×10⁻⁶ cm/s, less than 1 nM and less than 100 nM.
`CN(C)C(=O)Cc1ccc(Cn2cc(C(=O)NCc3ccc(C(=N)N)cc3)cn2)cc1` [Example 33, N-(4-carbamimidoylbenzyl)-1-(4-(2-(dimethylamino)-2-oxoethyl)benzyl)-1H-pyrazole-4-carboxamide]: in data set [1], the Papp at 2 h, 10 µM was less than 2 ×10⁻⁶ cm/s. In addition, the values for the IC50 at Plasma Kallikrein [2] and at Plasma Kallikrein [3] were less than 1 nM and less than 100 nM, respectively.
Take `N=C(N)c1ccc(CNC(=O)c2cnn(Cc3ccc(CC(N)=O)cc3)c2)cc1` [Example 18, 1-(4-(2-amino-2-oxoethyl)benzyl)-N-(4-carbamimidoylbenzyl)-1H-pyrazole-4-carboxamide]: in data set [1], the Papp at 2 h, 10 µM is less than 2 ×10⁻⁶ cm/s. In addition, the concentration for half-maximal inhibition (IC50) on Plasma Kallikrein [2] fell in the range of 1 to 10 nM.
As to `N#Cc1ccn(Cc2ccc(Cn3cc(C(=O)NCc4ccc(C(=N)N)cc4)cn3)cc2)c1` [Example 26, N-(4-carbamimidoylbenzyl)-1-(4-((3-cyano-1H-pyrrol-1-yl)methyl)benzyl)-1H-pyrazole-4-carboxamide], the Papp at 2 h, 10 µM in data set [1] was less than 2 ×10⁻⁶ cm/s. Further, the results for the IC50 on Plasma Kallikrein [2] and on Plasma Kallikrein [3] were less than 1 nM and less than 100 nM, respectively.
Regarding `N#CCCc1ccc(Cn2cnc(C(=O)NCc3ccc(C(=N)N)cc3)c2)cc1` [Example 4, N-(4-carbamimidoylbenzyl)-1-(4-(2-cyanoethyl)benzyl)-1H-imidazole-4-carboxamide], the Papp at 2 h, 10 µM in data set [1] is less than 2 ×10⁻⁶ cm/s. Besides, the IC50 at Plasma Kallikrein [2] is less than 1 nM.
In the case of `N#Cc1cccc(Cc2ccc(Cn3cc(C(=O)NCc4ccc(C(=N)N)cc4)cn3)cc2)c1` [Example 28, N-(4-carbamimidoylbenzyl)-1-(4-(3-cyanobenzyl)benzyl)-1H-pyrazole-4-carboxamide], the Papp at 2 h, 10 µM in data set [1] was less than 2 ×10⁻⁶ cm/s. In addition, the IC50 is less than 1 nM on Plasma Kallikrein [2] and less than 100 nM at Plasma Kallikrein [3].
`COCCc1ccc(Cn2cc(C(=O)NCc3ccc(C(=N)N)cc3)cn2)cc1` [Example 15, N-(4-carbamimidoylbenzyl)-1-(4-(2-methoxyethyl)benzyl)-1H-pyrazole-4-carboxamide]: in data set [1], the Papp at 2 h, 10 µM fell in the range of 2 to 10 ×10⁻⁶ cm/s. In addition, the values for the IC50 on Plasma Kallikrein [2] and on Plasma Kallikrein [3] were less than 1 nM and less than 100 nM, respectively.
Take `N#CCc1ccc(Cn2cnc(C(=O)NCc3ccc(C(=N)N)cc3)c2)cc1` [Example 9, N-(4-carbamimidoylbenzyl)-1-(4-(cyanomethyl)benzyl)-1H-imidazole-4-carboxamide]: in data set [1], the Papp at 2 h, 10 µM was 2 to 10 ×10⁻⁶ cm/s. Besides, at Plasma Kallikrein [2], the IC50 lay within 1 to 10 nM.
In the case of `CC(C)(C#N)c1ccc(Cn2cc(C(=O)NCc3ccc(C(=N)N)cc3F)cn2)cc1` [Example 45, N-(4-carbamimidoyl-2-fluorobenzyl)-1-(4-(2-cyanopropan-2-yl)benzyl)-1H-pyrazole-4-carboxamide], the Papp at 2 h, 10 µM in data set [1] was 2 to 10 ×10⁻⁶ cm/s. Further, the IC50 at Plasma Kallikrein [2] is less than 1 nM; at Plasma Kallikrein [3], less than 100 nM.
In the case of `CC(C)(C#N)c1ccc(Cn2cnc(C(=O)NCc3ccc(C(=N)N)cc3)c2)cc1` [Example 8, N-(4-carbamimidoylbenzyl)-1-(4-(2-cyanopropan-2-yl)benzyl)-1H-imidazole-4-carboxamide], the Papp at 2 h, 10 µM in data set [1] is less than 2 ×10⁻⁶ cm/s. In addition, the IC50 on Plasma Kallikrein [2] lay within 1 to 10 nM.
Consider `N#CCc1ccc(Cn2cc(C(=O)NCc3ccc(C(=N)N)cc3)cn2)cc1` [Example 1, N-(4-carbamimidoylbenzyl)-1-(4-(cyanomethyl)benzyl)-1H-pyrazole-4-carboxamide], for which the Papp at 2 h, 10 µM in data set [1] was less than 2 ×10⁻⁶ cm/s. The IC50 is less than 1 nM at Plasma Kallikrein [2] and less than 100 nM on Plasma Kallikrein [3].
For `COc1cc(CNC(=O)c2cnn(Cc3ccc(C(C)(C)C#N)cc3)c2)cc(F)c1C(=N)N` [Example 48, N-(4-carbamimidoyl-3-fluoro-5-methoxybenzyl)-1-(4-(2-cyanopropan-2-yl)benzyl)-1H-pyrazole-4-carboxamide], in that order: less than 2 ×10⁻⁶ cm/s, 10 to 100 nM and 100 to 1000 nM.
`CC(C)(C#N)c1ccc(Cn2cc(C(=O)NCc3ccc(C(=N)N)cc3)cn2)cc1` [Example 7, N-(4-carbamimidoylbenzyl)-1-(4-(2-cyanopropan-2-yl)benzyl)-1H-pyrazole-4-carboxamide]: the Papp at 2 h, 10 µM in data set [1] is less than 2 ×10⁻⁶ cm/s. In addition, the figures for the IC50 at Plasma Kallikrein [2] and at Plasma Kallikrein [3] were less than 1 nM and less than 100 nM, respectively.
